In patent US20120283175A1, “ANTIBACTERIAL COMPOSITIONS” (Achaogen, Inc., priority 2009, published 2012):
Converted amounts (≈) assume the structure as drawn.

Key:
Klebsiella pneumoniae = assay: Checkerboard synergy assay with LpxCi-4; type: cell-based; conditions: combination with LpxCi-4
Source text: (§1) One classic method for assessing synergy, referred to as the checkerboard assay, is used to predict the efficacy of antibacterial agents, and is described by Scribner et. al., (Antimicrobial Agents and Chemotherapy 21(6):939-943 (1982)) and in Goodman & Gilman (The Pharmacological Basis of Therapeutics, Sixth Edition, pp. 1097-1098 (1980)). The checkerboard assay involves serial two-fold dilutions of the antibiotics individually and in combination in broth, which is then inoculated with the microorganism to be tested. After incubation, the minimum inhibitory concentration (MIC) of each drug used individually and in combination is determined (N.B., the MIC is the lowest concentration of the drug that inhibits growth in the medium). Synergism is indicated by a decrease in the MIC of each drug when used in combination. Antagonism is indicated by an increase in the MIC of either or both drugs when used in combination. Alternate methods of assessing synergy are reviewed in Greco, et al., Pharmacological Reviews 47(2):[…] (1995), incorporated herein by reference in its entirety.
(§2) Partial or full inhibition of LpxC should compromise the outer membrane and thus allow these synergizing agents to enter the cells and exert an antibacterial effect at concentrations where cells untreated with an LpxC inhibitor are unaffected. As a first step, checkerboard synergy assays for a variety of antibacterial agents were perform with several LpxC inhibitors, on several species of gram negative bacteria.
(§3) Bacterial isolates were cultivated from −70° C. frozen stocks of the indicated strains by overnight passages at 35° C. in ambient air on Mueller-Hinton agar (Beckton Dickinson, Franklin Lakes, N.J.). Minimum Inhibitory Concentrations (MICs) were determined by the broth microdilution method in accordance with the Clinical and Laboratory Standards Institute (CLSI) guidelines. In brief, organism suspensions were adjusted to a 0.5 McFarland standard to yield a final inoculum between 3×10^5 and 7×10^5 colony-forming units (CFU)/mL. Drug dilutions and inocula were made in sterile, cation adjusted Mueller-Hinton Broth (Beckton Dickinson). An inoculum volume of 100 μL was added to wells containing 100 μL of broth with 2-fold serial dilutions of drug. All inoculated microdilution trays were incubated in ambient air at 35° C. for 18-24 hours. Following incubation, the lowest concentration of the drug that prevented visible growth (OD600 nm <0.05) was recorded as the MIC.
(§4) Standard checkerboard assays were performed with a combination of the indicated agents and LpxCi-4. Table 2 provides the FICI calculated according to standard techniques.

Escherichia coli = assay: Checkerboard synergy assay with LpxCi-4; type: cell-based; conditions: combination with LpxCi-4
Source text: as §1, §2, §3, §4

Yersinia enterocolitica = assay: Checkerboard synergy assay with LpxCi-4; type: cell-based; conditions: combination with LpxCi-4
Source text: as §1, §2, §3, §4

envA1 (D22) E. coli = assay: MIC by broth microdilution, isogenic envA1 mutant strain; type: cell-based
[1] = system: Klebsiella pneumoniae (ATCC 43816); type: in vivo
Protocol: Vancomycin and LpxCi-5 were dissolved in 30% HPβCD (2-hydroxypropyl-β-cyclodextrin). Test substances were each administered subcutaneously (SC) singly or in combination to test animals at 2 hours and 14 hours after bacterial inoculation then bid daily for a total of 1, 2, 3 or 7 day(s). The dosing volume was 5 mL/kg.
Groups of 5 or 10 male specific-pathogen-free CD-1 (Crl.) mice weighing 24±2 g were used. Animals were immunosuppressed by two or three intraperitoneal injections of cyclophosphamide, the first at 150 mg/kg 4 days before infection (day −4) and the second or third at 100 mg/kg 1 day before or 3 days after infection (day −1 or +3). On day 0, animals were inoculated intramuscularly (0.1 mL/thigh) into the right thigh with a specific number (1.35×10^7 CFU/mouse) of Klebsiella pneumoniae (ATCC 43816). Vehicle and test substances (singly or in combination) were each administered subcutaneously 2 hours and 14 hours after inoculation then bid for a total of 1, 2, 3 or 7 consecutive day(s). Groups at 24, 48, 72 hours and day 8 hours after treatment as the designated time of harvest, muscle of the right thigh was harvested from each of the survival test animals. An additional group with no treatment, at 2 hours after inoculation, the muscle of the right thigh was harvested and viable CFU on agar plates with or without drug were quantified by standard methods. Animals in groups designated for Day 8 harvest are 10 mice and daily tally of survivors were kept until harvest and recorded. A non-infected group was just treated with LpxCi-5 and kept out to Day 8 and then harvested. The removed muscle tissues were then homogenized in 3˜4 mL of PBS, pH 7.4, with a ceramic mortar. Homogenates of 0.1 mL were used for serial 10-fold dilutions and plated on Muller-Hinton Broth in 1.5% Bacto agar and plated in parallel with drug plates for CFU determination. The original inoculum was adjusted to 2×10^8 CFU/0.1 mL and then plated onto the 3 different drug plates of LpxCi-5 for CFU count.
The immunity of animals treated with vehicle or vancomycin alone was suppressed by two intraperitoneal injections of cyclophosphamide, the first was at 150 mg/kg 4 days before infection (day −4) and the second was at 100 mg/kg 1 day before infection (day −1). On day 0, test compound and vehicle were each administered subcutaneously at 2 and 14 hrs after animals were inoculated intramuscularly (0.1 mL/thigh) with 1.35×10^7 CFU/mouse of Klebsiella pneumoniae (ATCC 43816).
(§5) The immunity of animals treated with LpxCi-5 alone was suppressed by two or three intraperitoneal injections of cyclophosphamide, the first was at 150 mg/kg 4 days before infection (day −4); the second and the third was at 100 mg/kg 1 day before and three days after infection (day −1 and day +3). On day 0, test compound were each administered subcutaneously bid at 2 and 14 hrs after animals were inoculated intramuscularly (0.1 mL/thigh) with 1.35×10^7 CFU/mouse of Klebsiella pneumoniae (ATCC 43816) for one, two, three or seven consecutive days. At 24, 48, 72 hours or at day 8 after treatment, muscle of the right thigh was harvested from each of the test animals for CFU determination in normal and drug plates.
as §5, with “both vancomycin and the LpxC inhibitor, LpxCi-5,” for “LpxCi-5 alone”, “compounds in combination” for “compound”, “days.” for “days. At 24, 48, 72 hours or at day 8 after treatment, muscle of the right thigh was harvested from each of the test animals for CFU determination in normal and drug plates.”

`CN[C@H](CC(C)C)C(=O)N[C@H]1C(=O)N[C@@H](CC(N)=O)C(=O)N[C@H]2C(=O)N[C@H]3C(=O)N[C@H](C(=O)N[C@H](C(=O)O)c4cc(O)cc(O)c4-c4cc3ccc4O)[C@H](O)c3ccc(c(Cl)c3)Oc3cc2cc(c3O[C@@H]2O[C@H](CO)[C@@H](O)[C@H](O)[C@H]2O[C@H]2C[C@](C)(N)[C@H](O)[C@H](C)O2)Oc2ccc(cc2Cl)[C@H]1O` [Vancomycin, vancomycin] was tested, and the FICI index (Klebsiella pneumoniae) was “≦0.18”, the FICI index (Escherichia coli) was “≦0.28” and the FICI index (Yersinia enterocolitica) was “≦0.31”. The MIC (envA1 (D22) E. coli; Strain envA1 (D21)) was 32 µg/mL (≈ 22.1 µM), the “Fold decrease in MIC (envA+/envA1)” value (envA1 (D22) E. coli; envA+ vs envA1 E. coli) was “≧8” and the “Mean CFU/g thigh muscle (SEM)” value ([1]; 24 hr, normal plates, SC bid × 1, Vancomycin 25 mg/kg, LpxC-i 35 mg/kg) was “all animals died”. For the same compound, the “animals for which the inoculum was lethal at 24 hours” value ([1]; Vancomycin only treatment group) was 100% and the “time within which all mice died” value ([1]; vancomycin alone, SC at 2 and 14 hrs after inoculation) was no more than 24 h.
